Experimental data reported in US20240300945A1, “CLY SERIES COMPOUND, PREPARATION METHOD THEREFOR AND USE THEREOF IN PREPARATION OF DRUGS” (NANJING WELLBEST PHARMACEUTICAL CO., LTD, priority 2021, published 2024).

Assays:
serum IL-4 = assay: Mouse eczema model: serum IL-4 (ELISA); format: in vivo, C57BL/6 mice; details: after modeling, 0.1% cream for external use twice a day, 10 days (positive: aloxone)
Description: SPF grade female C57BL/6 mice were purchased at the age of 8 weeks (0.02 kg), 6 in each group, and randomly divided into the blank control group, model group, positive drug group, CLY-1 treatment group (0.1% CLY-1 cream for external use), CLY-2 treatment group (0.1% CLY-2 cream for external use), CLY-3 treatment group (0.1% CLY-3 cream for external use), CLY-4 treatment group (0.1% CLY-4 cream for external use), CLY-8 treatment group (0.1% CLY-8 cream for external use), CLY-11 treatment group (0.1% CLY-11 cream for external use) CLY-19 treatment group (0.1% CLY-19 cream for external use), CLY-36 treatment group (0.1% CLY-36 cream for external use) and CLY-39 treatment group (0.1% CLY-39 cream for external use).
Model establishment: the normal control group mice were smeared with 75% ethanol 14.3 ul on both ears, while the model group, positive drug group and treatment group were smeared with 1 nmol/L carpotriol liniment 14.3 ul on both ears at a regular time every day, and then smeared with 20 g/L OVA 25 ul after air drying, once a day, for 12 days to make a model.
From 4 days after the start of modeling, applied the cream matrix on the ear skin of mice in the blank control group and the model group, applied aloxone on the ear skin of mice in the positive drug group, and applied the treatment cream on the ear skin of mice in each treatment group respectively, twice a day in the morning and evening, for 10 consecutive days, took photos every day, and recorded scores.
The thickness of mouse auricle was measured and recorded with ear thickness measuring instrument before and on the 14th day respectively. After the measurement on the 14th day, the mice were sacrificed. Blood was taken and serum was separated.
The enzyme-labeled plate was coated with rabbit anti-mouse interleukin (IL)-4 antibody, stayed at 4° C. overnight, and the reaction was stopped according to the instructions of the ELISA kit to detect the level of serum IL-4. ELISA kits were all purchased from Raybiotech, USA.

[1] = test system: skin hair follicles and sebaceous glands of mice; assay: Mouse hair loss model: histopathological grading of skin hair follicles and sebaceous glands; format: in vivo, C57BL/6 mice; details: external 2% tincture, 60 days, 6 mice per group; for number of mice with hair follicle and sebaceous gland grade +++: grade +++ (most severe); for number of mice with hair follicle and sebaceous gland grade ±: grade ± (lesions limited); for number of mice with hair follicle and sebaceous gland grade −: grade − (normal structure)
Description: The experimental mice were divided into the negative control group (external use of 60% ethanol), model group (external use of 60% ethanol), positive control group (external use of 2% minoxidil tincture), CLY-1 external treatment group (external use of 2% CLY-1 tincture), CLY-2 external treatment group (external use of 2% CLY-2 tincture), CLY-3 external treatment group (external use of 2% CLY-3 tincture), CLY-4 external treatment group (external use of 2% CLY-4 tincture), CLY-8 external treatment group (external use of 2% CLY-8 tincture) CLY-11 external treatment group (2% CLY-11 tincture), CLY-19 external treatment group (2% CLY-19 tincture), CLY-36 external treatment group (2% CLY-36 tincture), and CLY-39 external treatment group (2% CLY-39 tincture). There were 6 animals in each group, half male and half female. An area of 4 cm×5 cm from the back of experimental mice with hair removed was selected, and the hair removal area was painted yellow with 3% picric acid solution to determine the observation area of the hair removal experiment. In addition to the negative control group, mice in other groups were injected subcutaneously with testosterone propionate injection [8 ml/(kg·d)] at the back of the neck, once a day, for 60 consecutive days, to establish the model of androgenic alopecia (AGA). At the same time of modeling, the rats in the corresponding drug group were smeared with drugs on the observation area of the back at the rate of 1 ml/(piece·time), twice a day, with an interval of 2 hours. The normal control group and the model control group were smeared with the excipient (60% ethanol solution), 1 ml/(one time), twice a day, for 60 consecutive days.
10 hairs were extracted from the observation area on the back of each mouse every 15 days after administration, and the hair length was measured with a vernier caliper. After 60 days of administration, the skin of the experimental observation area was taken for routine tissue dehydration, paraffin embedding, HE staining, and light microscopy to observe the histopathological changes of mouse skin hair follicles and sebaceous glands. Semi-quantitative analysis was performed for each group. The grading criteria are as follows: the normal structure of dermal tissue cells, subcutaneous hair follicles, and sebaceous glands is marked as […]: no hyperplasia of dermal tissue is found, the lesions of hair follicles and sebaceous glands are limited, and no inflammation is found under the skin is marked as “+”: no obvious hyperplasia of dermal tissue is found, and the follicles are obviously cystic. No obvious hyperplasia of sebaceous glands is found, and no inflammation is found under the skin is marked as “+”: the dermal tissue has segmental hyperplasia, which is not obvious, A small number of hair follicles have cystic changes, and the sebaceous glands have mild hyperplasia and hypertrophy. There is no obvious inflammation under the skin, which is marked as “++”: the dermal tissue cells of the skin have different degrees of segmental hyperplasia, and some hair follicles have cystic changes, showing uneven size of hair follicles, and no cells around. The sebaceous glands have hyperplasia, and the nuclei in the proliferative glands are few. A few subcutaneous mild inflammatory hyperplasia is marked as “+++”.

Nc1ccccc1-c1ccc(C(=O)N(c2ncccc2Cl)[C@@H]2CCCNC2)cc1 [CLY-39]
IL-4 level in peripheral blood (serum IL-4): 5.75 pg/mL
number of mice with hair follicle and sebaceous gland grade +++ [1]: 0
number of mice with hair follicle and sebaceous gland grade ++ [1]: 1
number of mice with hair follicle and sebaceous gland grade + [1]: 2
number of mice with hair follicle and sebaceous gland grade ± [1]: 3
number of mice with hair follicle and sebaceous gland grade − [1]: 0

O=C(c1ccc(-c2ccccc2Cl)cc1)N(c1ncccc1Cl)[C@@H]1CCCNC1 [CLY-36]
IL-4 level in peripheral blood (serum IL-4): 5.86 pg/mL
number of mice with hair follicle and sebaceous gland grade +++ [1]: 0
number of mice with hair follicle and sebaceous gland grade ++ [1]: 2
number of mice with hair follicle and sebaceous gland grade + [1]: 1
number of mice with hair follicle and sebaceous gland grade ± [1]: 3
number of mice with hair follicle and sebaceous gland grade − [1]: 0

O=C(c1ccc(-c2ccccc2-c2nnn[nH]2)cc1)N(c1ncccc1Cl)[C@@H]1CCCNC1 [CLY-19]
IL-4 level in peripheral blood (serum IL-4): 5.72 pg/mL
number of mice with hair follicle and sebaceous gland grade +++ [1]: 0
number of mice with hair follicle and sebaceous gland grade ++ [1]: 1
number of mice with hair follicle and sebaceous gland grade + [1]: 2
number of mice with hair follicle and sebaceous gland grade ± [1]: 3
number of mice with hair follicle and sebaceous gland grade − [1]: 0

NC1CCCC(N(C(=O)c2ccc(-n3nnc4cccnc43)cc2)c2ncccc2Cl)C1 (centres unmarked) [CLY-11]
IL-4 level in peripheral blood (serum IL-4): 6.45 pg/mL
number of mice with hair follicle and sebaceous gland grade +++ [1]: 0
number of mice with hair follicle and sebaceous gland grade ++ [1]: 2
number of mice with hair follicle and sebaceous gland grade + [1]: 1
number of mice with hair follicle and sebaceous gland grade ± [1]: 3
number of mice with hair follicle and sebaceous gland grade − [1]: 0

O=C(c1ccc(-n2nnc3cccnc32)cc1)N(c1ncccc1Cl)[C@@H]1CCNC1 [CLY-8, (R)-4-(3H-[1,2,3]triazolo[4,5-b]pyridin-3-yl)-N-(3-chloropyridin-2-yl)-N-(pyrrolidin-3-yl)benzamide]
IL-4 level in peripheral blood (serum IL-4): 5.53 pg/mL
number of mice with hair follicle and sebaceous gland grade +++ [1]: 0
number of mice with hair follicle and sebaceous gland grade ++ [1]: 0
number of mice with hair follicle and sebaceous gland grade + [1]: 2
number of mice with hair follicle and sebaceous gland grade ± [1]: 4
number of mice with hair follicle and sebaceous gland grade − [1]: 0

O=C(c1ccc(-n2nnc3cccnc32)cc1)N(c1ncccc1Cl)C1CCCC(O)C1 (centres unmarked) [CLY-4]
IL-4 level in peripheral blood (serum IL-4): 7.51 pg/mL
number of mice with hair follicle and sebaceous gland grade +++ [1]: 0
number of mice with hair follicle and sebaceous gland grade ++ [1]: 2
number of mice with hair follicle and sebaceous gland grade + [1]: 2
number of mice with hair follicle and sebaceous gland grade ± [1]: 2
number of mice with hair follicle and sebaceous gland grade − [1]: 0

Nc1cc(N2CCCCC2)nc(N)[n+]1[O-] [Positive control group, minoxidil, reference compound]
number of mice with hair follicle and sebaceous gland grade +++ [1]: 0
number of mice with hair follicle and sebaceous gland grade ++ [1]: 3
number of mice with hair follicle and sebaceous gland grade + [1]: 1
number of mice with hair follicle and sebaceous gland grade ± [1]: 2
number of mice with hair follicle and sebaceous gland grade − [1]: 0

CCN1CCC[C@@H](N(C(=O)c2ccc(-n3nnc4cccnc43)cc2)c2ncccc2Cl)C1 [CLY-2, (R)-4-(3H-[1,2,3]triazolo[4,5-b]pyridin-3-yl)-N-(3-chloropyridin-2-yl)-N-(1-ethylpiperidin-3-yl)benzamide]
IL-4 level in peripheral blood (serum IL-4): 5.58 pg/mL
number of mice with hair follicle and sebaceous gland grade +++ [1]: 0
number of mice with hair follicle and sebaceous gland grade ++ [1]: 0
number of mice with hair follicle and sebaceous gland grade + [1]: 2
number of mice with hair follicle and sebaceous gland grade ± [1]: 4
number of mice with hair follicle and sebaceous gland grade − [1]: 0

CN1CCC[C@@H](N(C(=O)c2ccc(-n3nnc4cccnc43)cc2)c2ncccc2Cl)C1 [CLY-1, (R)-4-(3H-[1,2,3]triazolo[4,5-b]pyridin-3-yl)-N-(3-chloropyridin-2-yl)-N-(1-methylpiperidin-3-yl)benzamide]
IL-4 level in peripheral blood (serum IL-4): 6.76 pg/mL
number of mice with hair follicle and sebaceous gland grade +++ [1]: 0
number of mice with hair follicle and sebaceous gland grade ++ [1]: 1
number of mice with hair follicle and sebaceous gland grade + [1]: 2
number of mice with hair follicle and sebaceous gland grade ± [1]: 3
number of mice with hair follicle and sebaceous gland grade − [1]: 0

CNC1CCCC(N(C(=O)c2ccc(-n3nnc4cccnc43)cc2)c2ncccc2Cl)C1 (centres unmarked) [CLY-3]
IL-4 level in peripheral blood (serum IL-4): 7.32 pg/mL
number of mice with hair follicle and sebaceous gland grade +++ [1]: 0
number of mice with hair follicle and sebaceous gland grade ++ [1]: 2
number of mice with hair follicle and sebaceous gland grade + [1]: 1
number of mice with hair follicle and sebaceous gland grade ± [1]: 3
number of mice with hair follicle and sebaceous gland grade − [1]: 0
